Data published in patent publication US20250333398A1, “MONOARYL AND HETARYL SUBSTITUTED INDAZOLES AND BENZIMIDAZOLES AS STING ANTAGONISTS AND THE USE THEREOF AS MEDICAMENT” (Boehringer Ingelheim International GmbH, priority 2024, published 2025).

Tested on: STING
Assay: IP10 production in human dermal microvascular endothelial cells (MVEC) after double-stranded DNA stimulation
Assay type: cell-based
Conditions: IP10 production after dsDNA stimulation; rounded average of multiple experiments; read-out: Inhibition of Human microvascular endothelial cells (IC50 nM)
Description: Interferon gamma-induced protein 10 (IP-10) also known as C—X—C motif chemokine ligand 10 (CXCL10) is produced as one of the responses of the presence of double-stranded DNA in the cytoplasm and resulting STING activity. In some diseases, imbalanced STING activation can result to damage in the endothelium, for example in SAVI patients (Liu Yet al. Activated STING in a vascular and pulmonary syndrome. N Engl J Med. 2014 Aug. 7; 371(6):507-518. doi: 10.1056/NEJMoa1312625). To test the efficacy of the inventive STING inhibitors, experiments in human microvascular endothelial cells (HMVEC) are performed with the inventive compounds. Dermal HMVEC are available from Lonza, US. They are cultured in 96 well plates according to the manufacturer's instructions. Using typical protocols, the cells are serum starved and then treated with the compound for 1 hour. The cells are then treated with 400 ng/mL of dsDNA as a complex with Lipofectamine 3000 (from Thermo Fisher Scientific Inc., Waltham, MA, USA) and incubated for 6 hours. The supernatants are collected and assayed for IP10 production.
Detection of IP10 is done using the U-PLEX HUMAN IP-10 ASSAY from Meso Scale Diagnostics (1601 Research Boulevard, Rockville, Maryland 20850-3173, USA) according to manufacturer's protocols.

SMILES	IC50 [nM]
Cn1nc(-n2cc3c(-c4nc(-c5ccc(P(C)(C)=O)cc5OC(F)(F)F)n(C)c4C4CC4)cccc3n2)cc1C(F)(F)F [Example 20, 4-{5-cyclopropyl-2-[4-(dimethylphosphoryl)-2-(trifluoromethoxy)phenyl]-1-methyl-1H-imidazol-4-yl}-2-[1-methyl-5-(trifluoromethyl)-1H-pyrazol-3-yl]-2H-indazole]	33
CC[P@](C)(=O)c1ccc(-c2nc(-c3cccc4nn(-c5cc(C(F)F)n(C)n5)cc34)c(C3CC3)n2C)c(OC(F)(F)F)c1 [Example 7, 4-(5-cyclopropyl-2-{4-[(S)-ethyl(methyl)phosphoryl]-2-(trifluoromethoxy)phenyl}-1-methyl-1H-imidazol-4-yl)-2-[5-(difluoromethyl)-1-methyl-1H-pyrazol-3-yl]-2H-indazole]	21
CC[P@](C)(=O)c1ccc(-c2nc(-c3cccc4nn(-c5cc(C(F)(F)F)n(C)n5)cc34)c(C3CC3)n2C)c(OC(F)(F)F)c1 [Example 10, 4-(5-cyclopropyl-2-{4-[(S)-ethyl(methyl)phosphoryl]-2-(trifluoromethoxy)phenyl}-1-methyl-1H-imidazol-4-yl)-2-[1-methyl-5-(trifluoromethyl)-1H-pyrazol-3-yl]-2H-indazole]	11
